# Tested on: 15LOX/PEBP1
# Experiment: Potency of 15LOX/PEBP1 inhibitors with anti-ferroptotic effect (Table 1)
# Type: cell-based
# Excerpt: Development and testing of new compounds that inhibit 15LOX/PEBP1 complex activity. A combination of computational and experimental studies are used. […] Computer modeling considers specific features of organization of 15LOX/PEBP1 complexes and positioning of AA-PE as well as regio-specific oxygenation of AA-residues at 15th carbon. […] It has been shown that: i) binding interface of 15LOX in 15LOX/PEBP1 complex includes a helix on 15LOX (α2) and kinase binding epitope (D144, H145, R146) on PEBP1 (FIG. 8); and ii) interfacial interactions play a pivotal role in allosterically altering conformational dynamics of 15LOX in complex, and its substrate specificity. Analysis of change in access to catalytic site upon PEBP1 binding, using elastic network models indicates needed sites at 15LOX/PEBP1 binding interface. Dynamics simulations are also performed, for 15LOX alone and 15LOX/PEBP1 complex. An effective inhibitor, NCG-01, with in vivo activity has been indicated. Several other 15LOX/PEBP1 inhibitors with anti-ferroptotic effect (FIG. 9) have been identified. To test the effectiveness of compounds identified from the computational screen, RSL3 and mechanical stretch models with LDH and PI assays as a primary outcome are performed. The compounds that inhibit cell death by at least 50% are then evaluated for their effects on AA-PE and AA oxidation by 15LOX/PEBP1 complex and 15LOX alone, respectively, by LC-MS. Evaluation of the effect of compounds in suppressing AA-PE-OOH formation in cells upon proferroptotic stimuli is also performed.
row,Compound,Potency
1,"FC(F)(F)c1ccc(-c2cn(-c3ccccc3)c(SCc3ccccc3)n2)cc1 [Compound 4, 2-(benzylthio)-1-phenyl-4-(4-(trifluoromethyl)phenyl)-1H-imidazole]",+ (+ > 1 μM)
2,"FC(F)(F)c1ccc(CSc2nc(-c3ccc(C(F)(F)F)cc3)cn2-c2ccccc2)cc1 [Compound 6, 1-phenyl-2-((4-(trifluoromethyl)benzyl)thio)-4-(4-(trifluoromethyl)phenyl)-1H-imidazole]",+ (+ > 1 μM)
3,"Fc1ccc(-n2cc(-c3ccccc3)nc2SCc2ccc(C(F)(F)F)cc2)cc1 [Compound 11, 1-(4-fluorophenyl)-4-phenyl-2-((4-(trifluoromethyl)benzyl)thio)-1H-imidazole]",+ (+ > 1 μM)
4,"FC(F)(F)c1ccc(CSc2nc(-c3ccccc3)cn2-c2ccc(Cl)cc2)cc1 [Compound 13, 1-(4-chlorophenyl)-4-phenyl-2-((4-(trifluoromethyl)benzyl)thio)-1H-imidazole]",+ (+ > 1 μM)
5,"Fc1ccccc1-n1cc(-c2ccccc2)nc1SCc1ccc(C(F)(F)F)cc1 [Compound 14, 1-(2-fluorophenyl)-4-phenyl-2-((4-(trifluoromethyl)benzyl)thio)-1H-imidazole]",+ (+ > 1 μM)
6,"Cc1ccc(-n2cc(-c3ccccc3)nc2SCc2ccc(C(F)(F)F)cc2)cc1 [Compound 16, 4-phenyl-1-(p-tolyl)-2-((4-(trifluoromethyl)benzyl)thio)-1H-imidazole]",+ (+ > 1 μM)
7,"FC(F)(F)c1ccc(CSc2nc(-c3ccccc3)cn2-c2cccc(Cl)c2)cc1 [Compound 17, 1-(3-chlorophenyl)-4-phenyl-2-((4-(trifluoromethyl)benzyl)thio)-1H-imidazole]",+ (+ > 1 μM)
8,"FC(F)(F)c1ccc(CSc2nc(-c3ccccc3)cn2-c2ccccc2)cc1 [Compound 20, 1,4-diphenyl-2-((4-(trifluoromethyl)benzyl)thio)-1H-imidazole]",+ (+ > 1 μM)
9,"Fc1cc(F)cc(-n2cc(-c3ccccc3)nc2SCc2ccc(C(F)(F)F)cc2)c1 [Compound 21, 1-(3,5-difluorophenyl)-4-phenyl-2-((4-(trifluoromethyl)benzyl)thio)-1H-imidazole]",dead
10,"Cc1cccc(-n2cc(-c3ccccc3)nc2SCc2ccc(C(F)(F)F)cc2)c1 [Compound 22, 4-phenyl-1-(m-tolyl)-2-((4-(trifluoromethyl)benzyl)thio)-1H-imidazole]",+ (+ > 1 μM)
11,"C[S+](=O)([O-])c1cccc(-n2cc(-c3ccccc3)nc2SCc2ccc(C(F)(F)F)cc2)c1 [Compound 23, 1-(3-(methylsulfonyl)phenyl)-4-phenyl-2-((4-(trifluoromethyl)benzyl)thio)-1H-imidazole]",+ (+ > 1 μM)
12,"FC(F)(F)c1ccc(CSc2nc(-c3ccccc3)cn2-c2cccc(Br)c2)cc1 [Compound 24, 1-(3-bromophenyl)-4-phenyl-2-((4-(trifluoromethyl)benzyl)thio)-1H-imidazole]",+ (+ > 1 μM)
13,"FC(F)(F)c1ccc(CSc2nc(-c3ccccc3)cn2-c2cccc(C(F)(F)F)c2)cc1 [Compound 25, 4-phenyl-2-((4-(trifluoromethyl)benzyl)thio)-1-(3-(trifluoromethyl)phenyl)-1H-imidazole]",+ (+ > 1 μM)
14,"Fc1cccc(-n2cc(-c3ccccc3)nc2SCc2ccc(C3(C(F)(F)F)N=N3)cc2)c1 [Compound 26, 1-(3-fluorophenyl)-4-phenyl-2-((4-(3-(trifluoromethyl)-3H-diazirin-3-yl)benzyl)thio)-1H-imidazole]",+ (+ > 1 μM)
15,"Fc1cccc(-n2cc(-c3ccc(Br)cc3)nc2SCc2ccccc2)c1 [Compound 27, 2-(benzylthio)-4-(4-bromophenyl)-1-(3-fluorophenyl)-1H-imidazole]",+ (+ > 1 μM)
16,"FC(F)Oc1cccc(-n2cc(-c3ccccc3)nc2SCc2ccc(C(F)(F)F)cc2)c1 [Compound 28, 1-(3-(difluoromethoxy)phenyl)-4-phenyl-2-((4-(trifluoromethyl)benzyl)thio)-1H-imidazole]",+ (+ > 1 μM)
17,"COc1cccc(-n2cc(-c3ccccc3)nc2SCc2ccc(C(F)(F)F)cc2)c1 [Compound 29, 1-(3-methoxyphenyl)-4-phenyl-2-((4-(trifluoromethyl)benzyl)thio)-1H-imidazole]",+ (+ > 1 μM)
18,"FC(F)(F)Oc1cccc(-n2cc(-c3ccccc3)nc2SCc2ccc(C(F)(F)F)cc2)c1 [Compound 30, 4-phenyl-1-(3-(trifluoromethoxy)phenyl)-2-((4-(trifluoromethyl)benzyl)thio)-1H-imidazole]",+ (+ > 1 μM)
19,"O=C(Nc1nc(-c2ccccc2)cn1-c1cccc(F)c1)c1ccc(C(F)(F)F)cc1 [Compound 31, N-(1-(3-fluorophenyl)-4-phenyl-1H-imidazol-2-yl)-4-(trifluoromethyl)benzamide]",+ (+ > 1 μM)

row,Compound,Potency
1,"Fc1cccc(-n2cc(-c3ccccc3)nc2NCc2ccc(C(F)(F)F)cc2)c1 [Compound 32, 1-(3-fluorophenyl)-4-phenyl-N-(4-(trifluoromethyl)benzyl)-1H-imidazol-2-amine]",++ (++ = 101-1000 nM)
2,"Cc1ccc(CSc2nc(-c3ccccc3)cn2-c2cccc(F)c2)cc1 [Compound 33, 1-(3-fluorophenyl)-2-((4-methylbenzyl)thio)-4-phenyl-1H-imidazole]",+ (+ > 1 μM)
3,"Fc1cccc(-n2cc(-c3ccccc3)nc2SCc2ccc(Br)cc2)c1 [Compound 34, 2-((4-bromobenzyl)thio)-1-(3-fluorophenyl)-4-phenyl-1H-imidazole]",+ (+ > 1 μM)
4,"Fc1cccc(-n2cc(-c3ccccc3)nc2SCc2cccc(C(F)(F)F)c2)c1 [Compound 35, 1-(3-fluorophenyl)-4-phenyl-2-((3-(trifluoromethyl)benzyl)thio)-1H-imidazole]",+ (+ > 1 μM)
5,"Fc1cccc(-n2cc(-c3ccccc3)nc2SCc2ccc(OC(F)(F)F)cc2)c1 [Compound 36, 1-(3-fluorophenyl)-4-phenyl-2-((4-(trifluoromethoxy)benzyl)thio)-1H-imidazole]",+ (+ > 1 μM)
6,"Fc1cccc(-n2cc(-c3ccccc3)nc2SCc2ccccc2)c1 [Compound 37, 2-(benzylthio)-1-(3-fluorophenyl)-4-phenyl-1H-imidazole]",+ (+ > 1 μM)
7,"CC(Sc1nc(-c2ccccc2)cn1-c1cccc(F)c1)c1ccccc1 (stereo not shown) [Compound 38, 1-(3-fluorophenyl)-4-phenyl-2-((1-phenylethyl)thio)-1H-imidazole]",+ (+ > 1 μM)
8,"Fc1cccc(-n2cc(-c3ccccc3)nc2SCc2cccc(Cl)c2)c1 [Compound 39, 2-((3-chlorobenzyl)thio)-1-(3-fluorophenyl)-4-phenyl-1H-imidazole]",+ (+ > 1 μM)
9,"CS(=O)(=O)c1ccc(CSc2nc(-c3ccccc3)cn2-c2cccc(F)c2)cc1 [Compound 40, 1-(3-fluorophenyl)-2-((4-(methylsulfonyl)benzyl)thio)-4-phenyl-1H-imidazole]",+ (+ > 1 μM)
10,"Fc1cccc(-n2cc(-c3ccccc3)nc2SCc2ccccc2C(F)(F)F)c1 [Compound 41, 1-(3-fluorophenyl)-4-phenyl-2-((2-(trifluoromethyl)benzyl)thio)-1H-imidazole]",+ (+ > 1 μM)
11,"Fc1cccc(-n2cc(-c3ccccc3)nc2SCc2ccc(Cl)cc2)c1 [Compound 42, 2-((4-chlorobenzyl)thio)-1-(3-fluorophenyl)-4-phenyl-1H-imidazole]",+ (+ > 1 μM)
12,"Cc1cccc(CSc2nc(-c3ccccc3)cn2-c2cccc(F)c2)c1 [Compound 43, 1-(3-fluorophenyl)-2-((3-methylbenzyl)thio)-4-phenyl-1H-imidazole]",+ (+ > 1 μM)
13,"NS(=O)(=O)c1ccc(CSc2nc(-c3ccccc3)cn2-c2cccc(F)c2)cc1 [Compound 44, 4-(((1-(3-fluorophenyl)-4-phenyl-1H-imidazol-2-yl)thio)methyl)benzenesulfonamide]",+ (+ > 1 μM)
14,"CC(C)(C)c1ccc(CSc2nc(-c3ccccc3)cn2-c2cccc(F)c2)cc1 [Compound 45, 2-((4-(tert-butyl)benzyl)thio)-1-(3-fluorophenyl)-4-phenyl-1H-imidazole]",+ (+ > 1 μM)
15,"Fc1cccc(-n2cc(-c3ccccc3)nc2SCc2cccc(Br)c2)c1 [Compound 46, 2-((3-bromobenzyl)thio)-1-(3-fluorophenyl)-4-phenyl-1H-imidazole]",+ (+ > 1 μM)
16,"CC(C)c1ccc(CSc2nc(-c3ccccc3)cn2-c2cccc(F)c2)cc1 [Compound 47, 1-(3-fluorophenyl)-2-((4-isopropylbenzyl)thio)-4-phenyl-1H-imidazole]",+ (+ > 1 μM)
17,"Fc1cccc(-n2cc(-c3ccccc3)nc2SCc2ccc(C(F)(F)F)cc2F)c1 [Compound 48, 2-((2-fluoro-4-(trifluoromethyl)benzyl)thio)-1-(3-fluorophenyl)-4-phenyl-1H-imidazole]",+ (+ > 1 μM)
18,"CC(=O)Nc1ccc(CSc2nc(-c3ccccc3)cn2-c2cccc(F)c2)cc1 [Compound 49, N-(4-(((1-(3-fluorophenyl)-4-phenyl-1H-imidazol-2-yl)thio)methyl)phenyl)acetamide]",+ (+ > 1 μM)

# Source: patent US20240002350A1, “PROTEIN AND LIPID THERAPEUTIC TARGETS” (UNIVERSITY OF PITTSBURGH-OF THE COMMONWEALTH SYSTEM OF …, priority 2020, published 2024)
